Measurements from patent US20210323981A1, “FREE AMINO COMPOUNDS FOR THE TREATMENT AND PROPHYLAXIS OF BACTERIAL INFECTION” (Hoffmann-La Roche Inc., priority 2018, published 2021).

Key:
Assay type in all cases: cell-based
S. aureus (ATCC29213) = assay: 50% growth inhibitory concentration (IC50) determination assay, S. aureus; conditions: Staphylococcus aureus, growth inhibition, Iso-Sensitest broth, OD 600 nm over 16 h, <0.098 μM = detection limit
Procedure: (§1) The in vitro antimicrobial activity of the compounds against S. aureus (ATCC29213), K. pneumoniae (ATCC10031), and A. baumannii (ATCC17978), was determined according to the following procedure: The assay used a 10-points Iso-Sensitest broth medium to measure quantitatively the in vitro activity of the compounds against S. aureus ATCC29213, K. pneumoniae ATCC 10031, and A. baumannii ATCC17978. Stock compounds in DMSO were serially two-fold diluted (range from 50 to 0.097 μM final concentration) in 384 wells microtiter plates and inoculated with 49 μL the bacterial suspension in Iso-Sensitest broth medium to have a final cell concentration of ˜5×10^5 CFU/mL in a final volume/well of 50 μL/well. Microtiter plates were incubated at 35±2° C. Bacterial cell growth was determined with the measurement of optical density at k=600 nm each 20 minutes over a time course of 16 h. Growth inhibition was calculated during the logarithmic growth of the bacterial cells with determination of the concentration inhibiting 50% (IC50) of the growth.

[1] = test system: K. pneumoniae (ATCC10031); assay: 50% growth inhibitory concentration (IC50) determination assay, K. pneumoniae; conditions: Klebsiella pneumoniae, growth inhibition, Iso-Sensitest broth, OD 600 nm over 16 h, <0.098 μM = detection limit
Procedure: as §1

A. baumannii (ATCC17978) = assay: 50% growth inhibitory concentration (IC50) determination assay, A. baumannii; conditions: Acinetobacter baumannii, growth inhibition, Iso-Sensitest broth, OD 600 nm over 16 h, <0.098 = detection limit
Procedure: as §1

IC50 (S. aureus (ATCC29213)) [µM]	IC50 [1] [µM]	IC50 (A. baumannii (ATCC17978)) [µM]	Compound
0.944	< 0.098	1.49	CCn1cc(C(=O)O)c(=O)c2cc(-c3cnc4[nH]c5c(NC)cc(F)c(F)c5c4c3N3CCC(N)C3)cnc21 (centres unmarked) [Example 1.03, 6-[4-(3-Aminopyrrolidin-1-yl)-5,6-difluoro-8-(methylamino)-9H-pyrido[2,3-b]indol-3-yl]-1-ethyl-4-oxo-1,8-naphthyridine-3-carboxylic acid]
0.532	< 0.098	2.95	CNc1cc(F)c(F)c2c1[nH]c1ncc(-c3cnc4c(c3)c(=O)c(C(=O)O)cn4C)c(N3CC[C@@H](N)C3)c12 [Example 1.17, 6-[4-[(3R)-3-Aminopyrrolidin-1-yl]-5,6-difluoro-8-(methylamino)-9H-pyrido[2,3-b]indol-3-yl]-1-methyl-4-oxo-1,8-naphthyridine-3-carboxylic acid]
< 0.098	–	–	CNc1cc(F)c(F)c2c1[nH]c1ncc(-c3cnc4c(c3)c(=O)c(C(=O)O)cn4C)c(N3CCC(N)(C(F)(F)F)C3)c12 (centres unmarked) [Example 1.05, 6-(4-(3-Amino-3-(trifluoromethyl)pyrrolidin-1-yl)-5,6-difluoro-8-(methylamino)-9H-pyrido[2,3-b]indol-3-yl)-1-methyl-4-oxo-1,4-dihydro-1,8-naphthyridine-3-carboxylic acid]
< 0.098	< 0.098	–	CNc1cc(F)c(F)c2c1[nH]c1ncc(-c3cnc4c(c3)c(=O)c(C(=O)O)cn4C)c(N3CCC(F)(CN)C3)c12 (centres unmarked) [Example 1.16, 6-[4-[3-(Aminomethyl)-3-fluoro-pyrrolidin-1-yl]-5,6-difluoro-8-(methylamino)-9H-pyrido[2,3-b]indol-3-yl]-1-methyl-4-oxo-1,8-naphthyridine-3-carboxylic acid]
< 0.098	< 0.098	0.477	CNc1cc(F)c(C#N)c2c1[nH]c1ncc(-c3cnc4c(c3)c(=O)c(C(=O)O)cn4C)c(N3CC[C@@]4(C[C@@H]4N)C3)c12 [Example 5.01, 6-[4-[(2S,3R)-2-Amino-5-azaspiro[2.4]heptan-5-yl]-5-cyano-6-fluoro-8-(methylamino)-9H-pyrido[2,3-b]indol-3-yl]-1-methyl-4-oxo-1,8-naphthyridine-3-carboxylic acid]
0.572	0.11	1.33	CCn1cc(C(=O)O)c(=O)c2cc(-c3cnc4[nH]c5c(NC)cc(F)c(F)c5c4c3N3CCC(CN)C3)cnc21 (centres unmarked) [Example 1.04, 6-(4-(3-(Aminomethyl)pyrrolidin-1-yl)-5,6-difluoro-8-(methylamino)-9H-pyrido[2,3-b]indol-3-yl)-1-ethyl-4-oxo-1,4-dihydro-1,8-naphthyridine-3-carboxylic acid]
0.314	< 0.098	0.654	CNc1cc(F)c(F)c2c1[nH]c1ncc(-c3cnc4c(c3)c(=O)c(C(=O)O)cn4C)c(N3C[C@@H]4[C@@H](N)[C@@H]4C3)c12 [Example 1.08, 6-[5,6-Difluoro-8-(methylamino)-4-[rel-(1S,5R)-6-amino-3-azabicyclo[3.1.0]hexan-3-yl]-9H-pyrido[2,3-b]indol-3-yl]-1-methyl-4-oxo-1,8-naphthyridine-3-carboxylic acid]
1.67	0.429	4.79	CNc1cc(F)c(F)c2c1[nH]c1ncc(-c3cnc4c(c3)c(=O)c(C(=O)O)cn4C)c(N3CC[C@H]4CN(CCCN)C[C@H]43)c12 (relative stereo) [Example 1.07, cis-6-[5,6-Difluoro-8-(methylamino)-4-[5-(3-aminopropyl)-2,3,3a,4,6,6a-hexahydropyrrolo[2,3-c]pyrrol-1-yl]-9H-pyrido[2,3-b]indol-3-yl]-1-methyl-4-oxo-1,8-naphthyridine-3-carboxylic acid]
0.448	< 0.098	0.889	CNc1cc(F)c(F)c2c1[nH]c1ncc(-c3cnc4c(c3)c(=O)c(C(=O)O)cn4C)c(N3C[C@H]4CCC[C@@]4(N)C3)c12 (stereo in doubt) [Example 1.12, trans-6-(5,6-Difluoro-8-(methylamino)-4-[3a-amino-1,3,4,5,6,6a-hexahydrocyclopenta[c]pyrrol-2-yl]-9H-pyrido[2,3-b]indol-3-yl)-1-methyl-4-oxo-1,8-naphthyridine-3-carboxylic acid]
< 0.098	–	–	CNc1cc(F)c(F)c2c1[nH]c1ncc(-c3cnc4c(c3)c(=O)c(C(=O)O)cn4C)c(N3CCC[C@]4(C[C@@H]4N)C3)c12 [Example 6.02, 6-[4-[(2S,3S)-2-amino-5-azaspiro[2.5]octan-5-yl]-5,6-difluoro-8-(methylamino)-9H-pyrido[2,3-b]indol-3-yl]-1-methyl-4-oxo-1,8-naphthyridine-3-carboxylic acid]
0.513	0.25	3.72	CNc1cc(F)c(F)c2c1[nH]c1ncc(-c3cnc4c(c3)c(=O)c(C(=O)O)cn4C)c(N3CCCC3CN)c12 (centres unmarked) [Example 1.09, 6-[4-[2-(Aminomethyl)pyrrolidin-1-yl]-5,6-difluoro-8-(methylamino)-9H-pyrido[2,3-b]indol-3-yl]-1-methyl-4-oxo-1,8-naphthyridine-3-carboxylic acid]
0.151	0.128	2.79	CNc1cc(F)c(C#N)c2c1[nH]c1ncc(-c3cnc4c(c3)c(=O)c(C(=O)O)cn4C)c(N3C[C@H]4CC[C@@H](N)[C@H]4C3)c12 (relative stereo) [Example 1.13, 6-[5-Cyano-6-fluoro-8-(methylamino)-4-[rel-(3aR,4R,6aS)-4-amino-3,3a,4,5,6,6a-hexahydro-1H-cyclopenta[c]pyrrol-2-yl]-9H-pyrido[2,3-b]indol-3-yl]-1-methyl-4-oxo-1,8-naphthyridine-3-carboxylic acid]
< 0.098	< 0.098	0.261	CNc1cc(F)c(F)c2c1[nH]c1ncc(-c3cnc4c(c3)c(=O)c(C(=O)O)cn4C)c(N3CCC4(C[C@H]4N)C3)c12 (mixture of isomers) [Example 2.02, Cis-6-[4-(2-amino-5-azaspiro[2.4]heptan-5-yl)-5,6-difluoro-8-(methylamino)-9H-pyrido[2,3-b]indol-3-yl]-1-methyl-4-oxo-1,8-naphthyridine-3-carboxylic acid]
< 0.098	< 0.098	0.0973	CNc1cc(F)c(Cl)c2c1[nH]c1ncc(-c3cnc4c(c3)c(=O)c(C(=O)O)cn4C)c(N3CC[C@]4(C[C@@H]4N)C3)c12 [Example 4.02, 6-[4-[(2S,3S)-2-amino-5-azaspiro[2.4]heptan-5-yl]-5-chloro-6-fluoro-8-(methylamino)-9H-pyrido[2,3-b]indol-3-yl]-1-methyl-4-oxo-1,8-naphthyridine-3-carboxylic acid]
< 0.098	< 0.098	0.497	CNc1cc(F)c(C#N)c2c1[nH]c1ncc(-c3cnc4c(c3)c(=O)c(C(=O)O)cn4C)c(N3CC[C@]4(C[C@@H]4N)C3)c12 [Example 5.03, 6-[4-[(2S,3S)-2-amino-5-azaspiro[2.4]heptan-5-yl]-5-cyano-6-fluoro-8-(methylamino)-9H-pyrido[2,3-b]indol-3-yl]-1-methyl-4-oxo-1,8-naphthyridine-3-carboxylic acid]
< 0.098	< 0.098	0.417	CNc1cc(F)c(C#N)c2c1[nH]c1ncc(-c3cnc4c(c3)c(=O)c(C(=O)O)cn4C)c(N3CC[C@]4(C[C@H]4N)C3)c12 [Example 5.02, 6-[4-[(2R,3S)-2-amino-5-azaspiro[2.4]heptan-5-yl]-5-cyano-6-fluoro-8-(methylamino)-9H-pyrido[2,3-b]indol-3-yl]-1-methyl-4-oxo-1,8-naphthyridine-3-carboxylic acid]
< 0.098	< 0.098	0.175	CNc1cc(F)c(F)c2c1[nH]c1ncc(-c3cnc4c(c3)c(=O)c(C(=O)O)cn4C)c(N3CC[C@]4(C[C@@H]4N)C3)c12 [Example 3.04, 6-[4-[(2S,3S)-2-Amino-5-azaspiro[2.4]heptan-5-yl]-5,6-difluoro-8-(methylamino)-9H-pyrido[2,3-b]indol-3-yl]-1-methyl-4-oxo-1,8-naphthyridine-3-carboxylic acid]
3.89	< 0.098	2.86	CNc1cc(F)c(F)c2c1[nH]c1ncc(-c3cnc4c(c3)c(=O)c(C(=O)O)cn4C)c(N3CC4(CCC4N)C3)c12 (centres unmarked) [Example 1.02, 6-[4-(7-Amino-2-azaspiro[3.3]heptan-2-yl)-5,6-difluoro-8-(methylamino)-9H-pyrido[2,3-b]indol-3-yl]-1-methyl-4-oxo-1,8-naphthyridine-3-carboxylic acid]
< 0.098	–	–	CNc1cc(F)c(F)c2c1[nH]c1ncc(-c3cnc4c(c3)c(=O)c(C(=O)O)cn4C)c(N3CCC[C@@]4(C[C@H]4N)C3)c12 [Example 6.01, 6-[4-[(2R,3R)-2-Amino-5-azaspiro[2.5]octan-5-yl]-5,6-difluoro-8-(methylamino)-9H-pyrido[2,3-b]indol-3-yl]-1-methyl-4-oxo-1,8-naphthyridine-3-carboxylic acid]
